Measurements from the CheMixHub viscosity set.

Experiment: xn = mol fraction of the nth substance listed

COC(=O)CC(C)=O + CCCCCCCO
viscosity [mPa·s], 101.33 kPa
Conditions | x1 = 0.1016 | x1 = 0.2071 | x1 = 0.3081 | x1 = 0.4096 | x1 = 0.5099 | x1 = 0.6072 | x1 = 0.7071 | x1 = 0.8059 | x1 = 0.9033
298.15 K | 4.066 | 3.167 | 2.651 | 2.278 | 2.012 | 1.842 | 1.663 | 1.546 | 1.512
303.15 K | 3.465 | 2.734 | 2.298 | 1.981 | 1.754 | 1.624 | 1.485 | 1.393 | 1.366
308.15 K | 2.97 | 2.357 | 1.998 | 1.733 | 1.545 | 1.452 | 1.337 | 1.264 | 1.245

CCOC(C)=O + CCCCCCO
viscosity [mPa·s], 101.33 kPa
Conditions | x1 = 0.1142 | x1 = 0.2247 | x1 = 0.332 | x1 = 0.436 | x1 = 0.537 | x1 = 0.635 | x1 = 0.7301 | x1 = 0.8227 | x1 = 0.9125
298.15 K | 2.832 | 2.006 | 1.472 | 1.128 | 0.9 | 0.736 | 0.618 | 0.539 | 0.47
303.15 K | 2.481 | 1.775 | 1.334 | 1.027 | 0.824 | 0.692 | 0.574 | 0.506 | 0.448
308.15 K | 2.181 | 1.582 | 1.2 | 0.942 | 0.76 | 0.591 | 0.541 | 0.475 | 0.419

CCOc1ccccc1 + CCCCCCO
viscosity [mPa·s], 101.3 kPa
Conditions | x1 = 0.1009 | x1 = 0.1998 | x1 = 0.2997 | x1 = 0.3996 | x1 = 0.5031 | x1 = 0.6005 | x1 = 0.7003 | x1 = 0.8012 | x1 = 0.9001
293.15 K | 4.148 | 3.239 | 2.559 | 2.075 | 1.745 | 1.557 | 1.458 | 1.407 | 1.38
298.15 K | 3.444 | 2.764 | 2.253 | 1.872 | 1.586 | 1.392 | 1.293 | 1.246 | 1.237
308.15 K | 2.831 | 2.252 | 1.807 | 1.482 | 1.248 | 1.103 | 1.033 | 1.001 | 0.9927
318.15 K | 2.142 | 1.72 | 1.388 | 1.153 | 0.9975 | 0.9133 | 0.8619 | 0.8367 | 0.8214

COC(=O)CC(C)=O + CCCCCCO
viscosity [mPa·s], 101.33 kPa
Conditions | x1 = 0.1036 | x1 = 0.204 | x1 = 0.3064 | x1 = 0.4075 | x1 = 0.5096 | x1 = 0.6081 | x1 = 0.7063 | x1 = 0.806 | x1 = 0.9023
298.15 K | 3.185 | 2.588 | 2.204 | 1.947 | 1.749 | 1.609 | 1.521 | 1.473 | 1.478
303.15 K | 2.76 | 2.257 | 1.932 | 1.72 | 1.547 | 1.442 | 1.364 | 1.33 | 1.34
308.15 K | 2.409 | 1.989 | 1.711 | 1.527 | 1.387 | 1.302 | 1.238 | 1.211 | 1.222
